Legend:
porcine brain tubulin [1] = target: T1, porcine brain tubulin (Sus scrofa, UniProt P02550+P02554); set-up: method as in PMID 36592487; details: dimers of the previous study; ref [10]; cited from earlier work
T1 construct: Polymerisation of porcine brain tubulin (>99% purity) was measured; purchased Cytoskeleton, Denver, CO; host or cells: porcine brain (tissue-purified)

HUVEC cells = test: Endothelial cell tube formation angiogenesis assay; format: cell-based, human; details: 60 nM, 24 h, Matrigel
Description: The experiment was performed in 96-well plates pre-coated with 50 μL of growth factor reduced basement membrane matrix Matrigel (Corning, Corning, NY). The coating was set by incubating the plates for 1 h at 37 °C. Subsequently, HUVEC cells were seeded at a density of 15 000 cells per well, and dissolved test substances were added to this layer in a total volume of 100 μL. The assay plates were then incubated for 24 h to facilitate endothelial tube formation. After this incubation, the cells were stained with Hoechst 33342 (Thermo Fisher Scientific, Waltham, MA) to a final concentration of 10 μM and calcein AM (Invitrogen, Carlsbad, CA) to a final concentration of 2 µg/mL for 30 min, followed by visualisation in DIC and fluorescent modes using a Zeiss fluorescent microscope (Oberkochen, Germany).

[2] = MTS cytotoxicity assay, MRC-5; format: cell-based; details: human
In short: (§1)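 MTS read-out after 72 h compound exposure at 37 °C. Cells plated the day before, treated with fourfold serial dilutions from DMSO stocks; duplicate wells, three independent experiments.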

U2OS cells = test: Immunofluorescence of microtubules / mitotic spindle; format: cell-based, human; details: 1 µM, 24-h incubation
Description: In addition, the presence of aster-like tubulin structures indicated the failure in microtubule elongation (Figure 4, ED5). […] The observed intracellular effects of ED3 and ED5 are consistent with data from in vitro assembly assays and cell cycle analyses, thereby strongly supporting the proposed antimitotic mechanisms of these EDs. […] Importantly, cytotoxic IC50 values may vary depending on the duration of exposure to the drug. A more extended exposure could lead to a decrease in the IC50 value, and vice versa. This temporal factor could also contribute to the observed differential sensitivity among the cell lines. The detailed mechanism and the extent to which these cellular and molecular dynamics (MD) contribute to the observed phenomenon might necessitate further investigation and experimentation.
U2OS cells, cultivated on coverslips, underwent a PBS wash and were then fixed in a solution of 3% paraformaldehyde in a buffer containing 10 mM MES, 150 mM NaCl, 5 mM EGTA, 5 mM MgCl2, 5 mM glucose, adjusted to a pH of 6.1. The nuclei were made visible using Hoechst 33342. Subsequently, a 60-min blocking step with 5% goat serum in PBS (SpinChem, Seattle, WA) was followed by a 60-min incubation with α-tubulin (DM1A) mouse monoclonal antibody (Cell Signaling, Danvers, MA) in PBS supplemented with 1% BSA and 0.3% Triton X-100. Visualisation was achieved using Alexa Fluor-488 conjugated anti-mouse antibodies (Life Technologies, Carlsbad, CA). Between each step, the samples underwent a series of three 5-min washes with PBS. Finally, the samples were mounted using Vectashield Mounting Medium with DAPI and imaged utilising a Zeiss spinning disk confocal microscope equipped with CSU-X1 unit (Yokogawa, Musashino, Japan)[10].

U2OS (osteosarcoma) = test: MTS cytotoxicity assay, U2OS; format: cell-based, human; details: Homo sapiens, U2OS, 72 h, read-out: IC50 cytotoxic activity U2OS
In short: (§2)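 Culture medium carried 10% foetal calf serum plus antibiotics. Treatment lasted 72 h with a fourfold dilution series, followed by MTS detection, in technical duplicate across three biological replicates.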

[3] = MTS cytotoxicity assay, BJ; format: cell-based; details: human
In short: as §2

[4] = system: A549 (lung adenocarcinoma); test: MTS cytotoxicity assay, A549; format: cell-based, human; details: Homo sapiens, A549, 72 h, read-out: IC50 cytotoxic activity A549
In short: as §2

[5] = MTS cytotoxicity assay, HUVEC; format: cell-based; details: human
In short: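 Overnight-seeded cells → fourfold serial compound dilutions (DMSO) → 72 h, 37 °C, 5% CO2 → MTS added. Duplicates ×3 biological reps.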

[6] = system: CEM-DNR (daunorubicin resistant variant of CCRF-CEM); test: MTS cytotoxicity assay, CEM-DNR; format: cell-based, human; details: Homo sapiens, CEM-DNR, 72 h, read-out: IC50 cytotoxic activity CEM-DNR
In short: as §2

[7] = system: K562-TAX (paclitaxel-resistant variant of K562); test: MTS cytotoxicity assay, K562-TAX; format: cell-based, human; details: Homo sapiens, K562-Tax, 72 h, read-out: IC50 cytotoxic activity K562-TAX
In short: as §2

[8] = system: K562 (chronic myelogenous leukaemia); test: MTS cytotoxicity assay, K562; format: cell-based; details: Homo sapiens, K562, 72 h, read-out: IC50 cytotoxic activity K562
In short: as §1

[9] = system: HCT116p53−/− (p53 gene null variant of HCT116); test: MTS cytotoxicity assay, HCT116p53−/−; format: cell-based; details: Homo sapiens, HCT-116, 72 h, read-out: IC50 cytotoxic activity HCT116p53-
In short: as §1

CCRF-CEM lymphoblasts [10] = test: BrU incorporation analysis (RNA synthesis); format: cell-based, human
In short: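 CCRF-CEM cells were treated with compounds for 24 h, then pulsed with 1 mM BrU for 30 min and fixed in 1% paraformaldehyde/0.05% NP-40. BrU was detected with a cross-reacting anti-BrdU antibody and FITC secondary, with propidium iodide/RNase counterstain; value is percentage of BrU-positive cells by flow cytometry.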

CCRF-CEM lymphoblasts [11] = test: Cell cycle analysis by flow cytometry (propidium iodide); format: cell-based, human
In short: (§3)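 CCRF-CEM cells treated 24 h, then fixed in cold 70% ethanol, permeabilised with 0.25% Triton X-100 and stained with anti-phospho-histone H3 (Ser10). After 50 μg/mL RNase and propidium iodide, analysed by flow cytometry at 488 nm; sub-G1 events counted as non-viable with fragmented DNA.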

[12] = system: HCT116 (colorectal adenocarcinoma); test: MTS cytotoxicity assay, HCT116; format: cell-based; details: Homo sapiens, HCT-116, 72 h, read-out: IC50 cytotoxic activity HCT116
In short: as §1

CCRF-CEM lymphoblasts [13] = test: Phospho-histone H3 (Ser10) mitotic marker, flow cytometry; format: cell-based, human
In short: as §3

[14] = system: CCRF-CEM (childhood T-cell acute lymphoblastic leukaemia); test: MTS cytotoxicity assay, CCRF-CEM; format: cell-based; details: Homo sapiens, 72 h, read-out: IC50 cytotoxic activity CCRF-CEM
In short: as §1

porcine brain tubulin [15] = target: T1, porcine brain tubulin; test: Tubulin polymerisation assay; format: biochemical; details: 10 μmol/L, Vmax relative to DMSO
In short: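 Porcine brain tubulin (>99% pure) was polymerised at 37 °C with 10 μmol/L test compound or DMSO and monitored on a plate reader. Vmax was derived from the polymerisation curves.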

CCRF-CEM lymphoblasts [16] = test: BrDU incorporation analysis (DNA synthesis); format: cell-based, human
In short: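 CCRF-CEM cells exposed to compounds for 24 h, pulse-labelled 30 min before harvest with 10 μM BrDU, ethanol-fixed, HCl-denatured, stained with anti-BrdU/FITC plus propidium iodide and RNase. Flow cytometry (488 nm) gives the percentage of BrDU-positive cells.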

T1 sequence (P02550 whole entry): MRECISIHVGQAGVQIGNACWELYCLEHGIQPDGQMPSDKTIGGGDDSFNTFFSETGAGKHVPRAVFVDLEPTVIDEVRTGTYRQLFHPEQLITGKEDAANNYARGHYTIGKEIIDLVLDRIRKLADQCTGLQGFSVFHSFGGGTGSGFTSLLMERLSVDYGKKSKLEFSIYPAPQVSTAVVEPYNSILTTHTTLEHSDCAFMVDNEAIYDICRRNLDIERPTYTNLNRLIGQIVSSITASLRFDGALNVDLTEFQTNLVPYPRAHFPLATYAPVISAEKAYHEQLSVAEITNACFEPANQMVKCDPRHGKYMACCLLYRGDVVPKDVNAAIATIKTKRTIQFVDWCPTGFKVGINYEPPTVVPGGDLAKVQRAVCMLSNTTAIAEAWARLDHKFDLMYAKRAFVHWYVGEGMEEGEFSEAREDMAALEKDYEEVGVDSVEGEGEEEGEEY
T1 sequence (P02554 whole entry): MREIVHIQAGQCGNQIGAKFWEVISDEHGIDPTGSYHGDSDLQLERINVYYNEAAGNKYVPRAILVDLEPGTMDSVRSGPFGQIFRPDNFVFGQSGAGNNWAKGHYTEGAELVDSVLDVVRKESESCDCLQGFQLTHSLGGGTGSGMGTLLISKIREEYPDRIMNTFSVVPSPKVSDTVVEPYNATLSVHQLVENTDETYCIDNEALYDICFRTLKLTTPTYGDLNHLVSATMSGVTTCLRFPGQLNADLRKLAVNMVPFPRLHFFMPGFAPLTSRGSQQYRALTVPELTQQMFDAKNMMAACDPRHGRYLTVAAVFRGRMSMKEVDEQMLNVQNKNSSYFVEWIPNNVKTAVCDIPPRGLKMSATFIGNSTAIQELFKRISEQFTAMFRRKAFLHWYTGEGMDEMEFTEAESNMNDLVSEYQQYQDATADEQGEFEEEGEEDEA

**Q.** For C[C@]12CC[C@@H]3c4ccc(O)cc4CC[C@H]3[C@@H]1CC[C@@]2(O)c1cn(CCOCCn2cc([C@]3(O)CC[C@H]4[C@@H]5CCc6cc(O)ccc6[C@H]5CC[C@@]43C)nn2)nn1 [D2], which Tubulin polymerisation inhibition (porcine brain tubulin [1]) is on record?
**A.** The Tubulin polymerisation inhibition was 79.1%.

**Q.** For C[C@]12CC[C@@H]3c4ccc(O)cc4CC[C@H]3[C@@H]1CC[C@@]2(O)c1cn(CCNCCn2cc([C@]3(O)CC[C@H]4[C@@H]5CCc6cc(O)ccc6[C@H]5CC[C@@]43C)nn2)nn1 [D3], which Tubulin polymerisation inhibition (porcine brain tubulin [1]) is on record?
**A.** Its Tubulin polymerisation inhibition is 36.8%.

**Q.** Which “endothelial cell tube formation (in words)” value (HUVEC cells) does the source give for Cc1ccc(C(=O)Nc2ccc(S(=O)(=O)O)c3cc(S(=O)(=O)O)cc(S(=O)(=O)O)c23)cc1NC(=O)c1cccc(NC(=O)Nc2cccc(C(=O)Nc3cc(C(=O)Nc4ccc(S(=O)(=O)O)c5cc(S(=O)(=O)O)cc(S(=O)(=O)O)c45)ccc3C)c2)c1 [suramine] here?
**A.** The value was “prevented endothelial cell tube formation”.

**Q.** Which results are given for COc1cc2c(c(OC)c1OC)-c1ccc(OC)c(=O)cc1[C@@H](NC(C)=O)CC2 [Colchicine, reference compound]?
**A.** IC50 at 72 h ([2]; MTS assay, 72-h incubation, mean ± SD of 3 independent experiments, read-out: IC50 cytotoxic activity MRC-5): 55 ± 29 nM; endothelial cell tube formation (in words) (HUVEC cells): prevented endothelial cell tube formation; microtubule organisation in mitotic cells (in words) (U2OS cells): complete absence of the spindle with diffuse tubulin signal; IC50 (U2OS (osteosarcoma)): 28 ± 14 nM; IC50 at 72 h ([3]; MTS assay, 72-h incubation, mean ± SD of 3 independent experiments, read-out: IC50 cytotoxic activity BJ): > 50000 nM; IC50 [4]: 47 ± 28 nM; IC50 at 72 h ([5]; MTS assay, 72-h incubation, mean ± SD of 3 independent experiments, read-out: IC50 cytotoxic activity HUVEC): < 12.2 nM; IC50 [6]: 1020 ± 210 nM; IC50 [7]: 1830 ± 190 nM

**Q.** Which Tubulin polymerisation inhibition (porcine brain tubulin [1]) does the source give for C[C@]12CC[C@@H]3c4ccc(O)cc4CC[C@H]3[C@@H]1CC[C@@]2(O)c1cn(CCCCCn2cc([C@]3(O)CC[C@H]4[C@@H]5CCc6cc(O)ccc6[C@H]5CC[C@@]43C)nn2)nn1 [D1] here?
**A.** The Tubulin polymerisation inhibition was 65.0%.

**Q.** With Cc1cc(Cn2cc([C@]3(O)CC[C@H]4[C@@H]5CCc6cc(O)ccc6[C@H]5CC[C@@]43C)nn2)c(O)c(Cn2cc([C@]3(O)CC[C@H]4[C@@H]5CCc6cc(O)ccc6[C@H]5CC[C@@]43C)nn2)c1 [ED6, (17β,17′β)-17,17′-[(2-Hydroxy-5-methylbenzene-1,3-diyl)bis(methanediyl-1H-1,2,3-triazole-1,4-diyl)]bisestra-1,3,5(10)-triene-3,17-diol] as the compound, how does the IC50 at 72 h [2] read?
**A.** Its IC50 at 72 h is over 50000 nM.

**Q.** What about the IC50 [8] of the same compound?
**A.** The IC50 was 1390 ± 210 nM.

**Q.** What about the IC50 [9] of the same compound?
**A.** Its IC50 is 1870 ± 130 nM.

**Q.** And the “RNA synthesis, BrU incorporation (in words)” value (CCRF-CEM lymphoblasts [10]; 1× and 5×IC50, 24 h, gated remaining live cells)?
**A.** The value was “high rate of RNA synthesis”.

**Q.** What about the “BrU, % of positive cells” value (CCRF-CEM lymphoblasts [10]; 1×IC50, 24 h) of the same compound?
**A.** Its value is 67.97%.

**Q.** And the “BrU, % of positive cells” value (CCRF-CEM lymphoblasts [10]; 5×IC50, 24 h)?
**A.** Its value is 39.43%.

**Q.** And the “<G1 (sub-G1, fragmented DNA), % of positive cells” value (CCRF-CEM lymphoblasts [11]; 1×IC50, 24 h)?
**A.** The value was 11.43%.

**Q.** And the “>G2/M (polyploidy), % of positive cells” value (CCRF-CEM lymphoblasts [11]; 1×IC50, 24 h)?
**A.** Its value is 6.19%.

**Q.** And the “G0/G1, % of positive cells” value (CCRF-CEM lymphoblasts [11]; 1×IC50, 24 h)?
**A.** Its value is 32.46%.

**Q.** What about the “G2/M, % of positive cells” value (CCRF-CEM lymphoblasts [11]; 1×IC50, 24 h) of the same compound?
**A.** Its value is 29.74%.

**Q.** And the “S, % of positive cells” value (CCRF-CEM lymphoblasts [11]; 1×IC50, 24 h)?
**A.** Its value is 37.81%.

**Q.** And the “<G1 (sub-G1, fragmented DNA), % of positive cells” value (CCRF-CEM lymphoblasts [11]; 5×IC50, 24 h)?
**A.** The value was 36.87%.

**Q.** And the “>G2/M (polyploidy), % of positive cells” value (CCRF-CEM lymphoblasts [11]; 5×IC50, 24 h)?
**A.** The value was 9.85%.

**Q.** And the “G0/G1, % of positive cells” value (CCRF-CEM lymphoblasts [11]; 5×IC50, 24 h)?
**A.** The value was 8.21%.

**Q.** And the “G2/M, % of positive cells” value (CCRF-CEM lymphoblasts [11]; 5×IC50, 24 h)?
**A.** Its value is 73.29%.

**Q.** What about the “S, % of positive cells” value (CCRF-CEM lymphoblasts [11]; 5×IC50, 24 h) of the same compound?
**A.** The value was 18.50%.

**Q.** And the IC50 [12]?
**A.** Its IC50 is 1740 ± 110 nM.

**Q.** What about the IC50 (U2OS (osteosarcoma)) of the same compound?
**A.** Its IC50 is 5060 ± 1680 nM.

**Q.** And the IC50 at 72 h [3]?
**A.** Its IC50 at 72 h is over 50000 nM.

**Q.** What about the “pH3Ser10, % of positive cells” value (CCRF-CEM lymphoblasts [13]; 1×IC50, 24 h) of the same compound?
**A.** The value was 9.07%.

**Q.** What about the “pH3Ser10, % of positive cells” value (CCRF-CEM lymphoblasts [13]; 5×IC50, 24 h) of the same compound?
**A.** Its value is 0.76%.

**Q.** And the IC50 [14]?
**A.** The IC50 was 1540 ± 250 nM.

**Q.** What about the “inhibitory activity against tubulin polymerisation (in words)” value (porcine brain tubulin [15]) of the same compound?
**A.** The value was “comparable or better inhibitory activity”.

**Q.** And the IC50 [4]?
**A.** Its IC50 is 8600 ± 2220 nM.

**Q.** And the IC50 at 72 h [5]?
**A.** The IC50 at 72 h was under 12.2 nM.

**Q.** And the IC50 [6]?
**A.** The IC50 was over 50000 nM.

**Q.** What about the IC50 [7] of the same compound?
**A.** Its IC50 is over 50000 nM.

**Q.** And the “BrDU, % of positive cells” value (CCRF-CEM lymphoblasts [16]; 1×IC50, 24 h)?
**A.** Its value is 37.25%.

**Q.** What about the “BrDU, % of positive cells” value (CCRF-CEM lymphoblasts [16]; 5×IC50, 24 h) of the same compound?
**A.** Its value is 7.83%.

**Q.** Which Tubulin polymerisation inhibition (porcine brain tubulin [1]) does the source give for COc1cc(CN(CCn2cc([C@]3(O)CC[C@H]4[C@@H]5CCc6cc(O)ccc6[C@H]5CC[C@@]43C)nn2)CCn2cc([C@]3(O)CC[C@H]4[C@@H]5CCc6cc(O)ccc6[C@H]5CC[C@@]43C)nn2)ccc1O [D9] here?
**A.** Its Tubulin polymerisation inhibition is 49.6%.
